Experimental data taken from US20210062263A1, “A CLINICAL […]” (priority 2016, published 2021).

Legend:
[1] = Serum testosterone levels (RIA) in wounded male mice with testosterone implants; type: in vivo; conditions: for Serum Testosterone: Castrated + T males
Description: Six to nine week-old male Balb/cJASMU mice obtained from the Monash University Animal Services, Monash University, Clayton, Victoria, Australia, were housed prior to and during experiments under the following conditions: temperature range 21° C. to 24° C.; light cycle 12 hours light: 12 hours dark. All mice had access to food and water ad libitum.
(§1) Six week-old male mice were castrated under anesthesia three weeks prior to the studies on wound healing. The testes were gently pushed through the inguinal canal into the abdominal cavity and exposed through a small (0.5 cm) ventral midline abdominal incision. Each testis was gently dissected from its epididymis and removed after ligation of the testicular vasculature. All incisions were closed using two interrupted 5/0 silk sutures (Johnson & Johnson Medical, NSW, Australia).
(§2) Implants were prepared by cutting medical grade Silastic (polydimethylsiloxane) tubing (1.5 mm inner diameter, 2.3 mm outer diameter, Aunet Pty Ltd, WA, Australia) to the desired length (1 cm long) and sealing one end with Multi-Purpose Sealant (Dow Corning RTV Sealant). After 24 hours each tube was packed with either crystalline testosterone (Sigma #T-1500) or left empty (vehicle implant). The open end was then sealed and implants were allowed to dry for at least 24 hours prior to surgical implantation. The implant size was considered to be the length of tubing containing testosterone. Prior to subcutaneous insertion, implants were sterilized in absolute ethanol for 10 minutes which also removed any androgen adhering to its external surface. Each testosterone or vehicle implant was inserted subcutaneously via a 5-mm nape incision in intact and castrated male mice three weeks before the wound healing experiments and the incision site was closed with 5/0 sutures.
(§3) Under anesthesia, the dorsal flanks of each 9 weeks old mouse (n=6/group) were carefully shaved and cleansed with 70% v/v ethanol. To create wounds, full-thickness, parasagittal linear incisions (1 cm long) were made through the skin and underlying the panniculus carnosus muscle on each flank and each wound was closed using two 5/0 silk sutures placed 3 mm from each end of the wound. Post operatively, all animals received analgesia to minimize pain, were allowed to recover on a heated pad and then housed in groups of four animals per cage. Incisions were examined and assessed on days 3, 5, 7 and post-wounding.
(§4) Blood samples were collected between 10:00 and 10:30 am by cardiac puncture at different time points (0d, 3d, 5d, 7d or 14d) according to the experimental protocol. The samples were allowed to coagulate for 30 minutes then centrifuged at 10,000 g for 10 minutes to collect serum which was stored at −20° C. until assayed.
Serum testosterone levels were measured using a direct radioimmunoassay (RIA) testosterone kit (IM1119—Immunotech, Marseilles, France) according to the manufacturer's instructions, using I^125-labeled testosterone as a radioactive tracer. The antibody used in the immunoassay is highly specific for testosterone with extremely low cross-reactivity (<0.75%) for related molecules such as 5a-dihydrotestosterone or […]. The assay sensitivity for serum testosterone was 15.63 pg/ml and the intra-assay variation was 7.9%. All samples from one experiment were measured in the same assay.

[2] = Reproductive organ weights (seminal vesicle, epididymis); type: in vivo, mice; conditions: castrated males, testosterone replacement
Text: as §1
as §2, with “Each testosterone or vehicle implant was inserted subcutaneously via a 5-mm nape incision in intact and castrated male mice three weeks before the wound healing experiments and the incision site was closed with 5/0 sutures.” left out

dorsal skin wound = assay: Macroscopic evaluation of dorsal skin wounds; type: in vivo, mice
Description: as §2
as §3, with “Post operatively, all animals received analgesia to minimize pain, were allowed to recover on a heated pad and then housed in groups of four animals per cage.” left out
Digital images of each dorsal skin wound were obtained with a standardized focal distance, aperture and exposure time using a Nikon D5000 camera (Nikon, Tokyo, Japan) immediately after the initial incision and at 3, 5, 7 and 14 days post-wounding. Wound areas were measured within the wound margins and the pixel areas were calculated using Adobe Photoshop CS5 (version 12.0, Adobe Systems Inc). The area of erythema was measured in all groups at 3 days and 5 days post-wounding and the area of the wound was measured in all groups at all time-points.

TNF-α = assay: Cutaneous TNF-α levels (ELISA) after wounding; type: in vivo, mice
Description: (§5) Frozen samples of wounded and unwounded skin were homogenized (Janke & Kunkel Ultraturrax T25 homogenizer, IKA Labortechnik, Staufen, Germany) in 1% v/v protease inhibitor (Calbiochem, San Diego, Calif.) and the homogenates were centrifuged at 4° C. to remove debris prior to assay.
(§6) Cutaneous levels of IL-6 and TNF-α were measured in skin samples using ELISAs according to the manufacturer's instructions (R&D Systems Inc, MN, USA). The sensitivity of the IL-6 ELISA was 5.97 pg/ml; the intra-assay variation was of 3.4% and the inter-assay variation was 4.1%. Mouse recombinant was used as a standard for the TNF-α assay; the sensitivity of the ELISA was 9.04 pg/ml; the intra-assay variation was of 12.8% and the inter-assay variation was 12.7%. The concentrations are expressed per mg of tissue (wet weight).

IL-6 = assay: Cutaneous IL-6 levels (ELISA) after wounding; type: in vivo, mice
Description: as §5, §6

activin A [3] = assay: Cutaneous activin A levels (ELISA) after wounding; type: in vivo, mice; conditions: testosterone replacement, day 3 post-wounding
Text: as §3
Following exsanguination, anesthetized animals were killed by cervical dislocation. Full-thickness specimens of the skin wound, consisting of the entire wound scar surrounded by a border of about 3-mm, were excized and bisected. Half of each sample was frozen at −80° C. and the other half was fixed in 4% v/v paraformaldehyde (Sigma-Aldrich, NSW, Australia) and processed for histology. Unwounded skin was obtained from the dorsum of the trunk near the tail of each animal to determine protein levels. […]
Activin A levels were measured in serum and skin using a specific ELISA and human recombinant activin A as a standard, according to manufacturer's instructions (Oxford Bioinnovations, Cherwell, Oxfordshire, UK) [Knight et al. (1996) J Endocrinol 148(2):267-279]. […]

activin A [4] = assay: Serum activin A levels (ELISA) in wounded male mice; type: in vivo
Description: as §2, §3, §4
Activin A levels were measured in serum and skin using a specific ELISA and human recombinant activin A as a standard, according to manufacturer's instructions (Oxford Bioinnovations, Cherwell, Oxfordshire, UK) [Knight et al. (1996) J Endocrinol 148(2):267-279]. The assay sensitivity for serum activin A was 11 pg/ml, with an intra-assay variation of 4.6-7.5% and an inter-assay variation of 10.6%.

C[C@]12CC[C@H]3[C@@H](CCC4=CC(=O)CC[C@@]43C)[C@@H]1CC[C@@H]2O [testosterone]
Serum Testosterone ([1]; 0 d): 5.7 ± 0.8 ng/mL | Serum Testosterone ([1]; 3 d): 5.4 ± 0.5 ng/mL | Serum Testosterone ([1]; 5 d): 5.9 ± 0.4 ng/mL | Serum Testosterone ([1]; 7 d): 5.2 ± 0.5 ng/mL | Serum Testosterone ([1]; 14 d): 4.5 ± 0.1 ng/mL | serum testosterone levels (in words) ([1]; castrated males, testosterone replacement): back to control levels | concentration at 0 d ([1]; male, Balb/cJASMU, mouse, serum, subcutaneous, 1 cm Silastic implant packed with crystalline testosterone, Intact + T males, 0 d): 5.3 ± 0.4 ng/mL | concentration at 3 d ([1]; male, Balb/cJASMU, mouse, serum, subcutaneous, 1 cm Silastic implant packed with crystalline testosterone, Intact + T males, 3 d): 5.9 ± 0.4 ng/mL | concentration at 5 d ([1]; male, Balb/cJASMU, mouse, serum, subcutaneous, 1 cm Silastic implant packed with crystalline testosterone, Intact + T males, 5 d): 7.8 ± 0.9 ng/mL | concentration at 7 d ([1]; male, Balb/cJASMU, mouse, serum, subcutaneous, 1 cm Silastic implant packed with crystalline testosterone, Intact + T males, 7 d): 6.7 ± 0.4 ng/mL | concentration at 14 d ([1]; male, Balb/cJASMU, mouse, serum, subcutaneous, 1 cm Silastic implant packed with crystalline testosterone, Intact + T males, 14 d): 6.3 ± 0.3 ng/mL | size and weight of the epididymis [2]: 0.05±0.02 | size and weight of the seminal vesicle [2]: 0.42±0.02 | wound area (dorsal skin wound; castrated animals treated with testosterone vs vehicle, days 3 and 5 post-wounding): increased wound area | scabs on wound surface (dorsal skin wound; castrated males, testosterone replaced): scabs were observed at both days 3 and 5 | area of erythema (dorsal skin wound; castrated+T males, day 3 post-wounding): 0.42±0.03 cm2 | TNF-α skin levels (TNF-α; castrated males, testosterone replaced vs castrated males, days 5 and 7): significantly higher | TNF-α skin levels (TNF-α; castrated males, testosterone replaced, day 7 post-wounding): significantly increased | TNF-α skin levels (TNF-α; intact males given testosterone vs intact group, day 3 post-wounding): significantly increased | cutaneous IL-6 relative to castrated group (IL-6; castrated males, testosterone replacement, day 3 post-wounding): twice | cutaneous IL-6 relative to intact male group (IL-6; intact males treated with testosterone, day 3 post-wounding): almost twice | basal IL-6 levels in skin (IL-6; intact males treated with testosterone, unwounded skin): increased basal IL-6 levels | increase in cutaneous levels of activin A (activin A [3]; castrated males): 17 fold | cutaneous levels of activin A relative to castrated males (activin A [3]): twice | Serum Activin A (activin A [4]; Castrated + T males, 0 d): 80.2 ± 7.8 pg/mL | Serum Activin A (activin A [4]; Castrated + T males, 3 d): 65.4 ± 5.8 pg/mL | Serum Activin A (activin A [4]; Castrated + T males, 5 d): 54.9 ± 7.7 pg/mL | Serum Activin A (activin A [4]; Castrated + T males, 7 d): 83.8 ± 7.3 pg/mL | Serum Activin A (activin A [4]; Castrated + T males, 14 d): 93 ± 7.7 pg/mL | Serum Activin A (activin A [4]; Intact + T males, 0 d): 65.4 ± 6.8 pg/mL | Serum Activin A (activin A [4]; Intact + T males, 3 d): 85.2 ± 5 pg/mL | Serum Activin A (activin A [4]; Intact + T males, 5 d): 74.9 ± 6.9 pg/mL | Serum Activin A (activin A [4]; Intact + T males, 7 d): 92.1 ± 3.8 pg/mL | Serum Activin A (activin A [4]; Intact + T males, 14 d): 74.6 ± 3.5 pg/mL | serum activin levels (in words) (activin A [4]; castrated males, testosterone replacement vs castrated+Vh, days 3 and 5 post wounding): decreased serum activin levels
